Among the data in ChEMBL document CHEMBL4325881, “Facile synthesis of 2-aryl 5-hydroxy benzo[d]oxazoles and their in vitro anti-proliferative effects on various cancer cell lines” (Bioorg Med Chem Lett, 2018) are IC50 values, retold here.

SMILES strings stand for the structures.

One experiment deals with A549. Description: Cytotoxicity against human A549 cells assessed as reduction in cell viability after 48 hrs by MTT assay. Particulars: A549, 48 h. The format is functional, cell-based.
In another experiment the test system is MDA-MB-231. Description: Cytotoxicity against human MDA-MB-231 cells assessed as reduction in cell viability after 48 hrs by MTT assay. The class given is functional, cell-based. The settings on record: MDA-MB-231, 48 h.
The nature of experiment [1]: Cytotoxicity against human […] cells assessed as reduction in cell viability after 48 hrs by MTT assay. The format is functional, cell-based.
The next experiment concerns HeLa. Description: Cytotoxicity against human HeLa cells assessed as reduction in cell viability after 48 hrs by MTT assay. The class given is functional, cell-based.
Another experiment deals with HepG2. Description: Cytotoxicity against human HepG2 cells assessed as reduction in cell viability after 48 hrs by MTT assay. The class given is functional, cell-based. Particulars: HepG2, 48 h.
The subject of another experiment is HaCaT. The experiment is described as follows: Cytotoxicity against human HaCaT cells assessed as reduction in cell viability after 48 hrs by MTT assay. The format is cell-based.

As to `COc1cc(OC)cc(-c2nc3c(C=O)c(O)ccc3o2)c1`, the IC50 in the experiment with A549 was 30.3 µM; in the experiment with MDA-MB-231, 34.1 µM; in experiment [1], 30.5 µM; with HeLa it was 25.3 µM; with HepG2, 21.4 µM; in the experiment on HaCaT, 17.6 µM.

In the case of `O=Cc1c(O)ccc2oc(-c3ccccc3Cl)nc12`, the IC50 in the experiment on A549 worked out at 7.68 µM; in the experiment on MDA-MB-231, 5.66 µM; in experiment [1] it was 14 µM; in the experiment with HeLa it was 14.1 µM; with HepG2, 10.5 µM; with HaCaT, 12.1 µM.

On to `CC(=O)c1c(O)ccc2oc(-c3ccccc3C)nc12`, for which the IC50 with A549 worked out at 20.1 µM; in the experiment on MDA-MB-231 it was 30.1 µM; in experiment [1], 17.5 µM; in the experiment with HeLa, 19.2 µM; in the experiment with HepG2 it was 11.7 µM; in the experiment on HaCaT it was 8.94 µM.

On to `CC(=O)c1c(O)ccc2oc(-c3ccccc3)nc12`, for which the IC50 (in the experiment on A549; in the experiment on MDA-MB-231; in experiment [1]; with HeLa; with HepG2; with HaCaT) was more than 30 µM each time.

With `COc1ccccc1-c1nc2c(C=O)c(O)ccc2o1`, the IC50 with A549 came out at 2.8 µM; with MDA-MB-231, 5.95 µM; in experiment [1], 10.4 µM; in the experiment with HeLa, 8.08 µM; with HepG2 it was 10.8 µM; in the experiment on HaCaT, 8.38 µM.

On to `O=Cc1c(O)ccc2oc(-c3ccccc3[N+](=O)[O-])nc12`, for which the IC50 with A549 came to 7.03 µM; in the experiment on MDA-MB-231, 9.18 µM; in experiment [1], 18.4 µM; in the experiment on HeLa, 14.5 µM; with HepG2, 17.4 µM; in the experiment with HaCaT it was 20 µM.

As for `O=Cc1c(O)ccc2oc(-c3cccc4ccccc34)nc12`, the half-maximal inhibitory concentration (IC50) in the experiment on A549 turned out to be 28.4 µM; with MDA-MB-231, 31.2 µM; in experiment [1] it was 21.2 µM; with HeLa, 30.1 µM; in the experiment on HepG2, 27.7 µM; in the experiment on HaCaT, 10.7 µM.

Turning to `Cc1ccccc1-c1nc2c(C=O)c(O)ccc2o1`, the IC50 with A549 is 2.21 µM; with MDA-MB-231, 5.36 µM; in experiment [1], 9.73 µM; in the experiment on HeLa, 15.4 µM; in the experiment with HepG2, 4.74 µM; with HaCaT, 12.2 µM.

For the compound `O=Cc1c(O)ccc2oc(-c3ccco3)nc12`, the IC50 (in the experiment with A549; with MDA-MB-231; in experiment [1]; with HeLa; with HepG2; in the experiment with HaCaT) was more than 30 µM throughout.

Regarding `COc1cccc2c1C(=O)c1c(O)c3c(c(O)c1C2=O)C[C@@](O)(C(=O)CO)C[C@@H]3O[C@H]1C[C@H](N)[C@H](O)[C@H](C)O1` [DOXORUBICIN], the IC50 in the experiment with A549 was determined as 0.34 µM; in experiment [1], 1.57 µM; in the experiment on HeLa it was 0.11 µM; in the experiment on HepG2, 0.52 µM; with HaCaT, 0.52 µM.
